Two compounds from patent US20240299309A1 (priority 2020, published 2024) can be followed below.

Molecules are shown by their SMILES.

One test concerns SARS-CoV-2. The arrangement: species or system Balb/c mice. The following applies: mouse, in vivo.
The subject of a further test is Staphylococcus aureus. The format is cell-based.
In the next test the test system is Pseudomonas aeruginosa. The format is cell-based.

In the case of `OCCOc1ccccc1` [Formulation 2-PE, 2-Phenoxyethanol], in the test with SARS-CoV-2, the “VNTs after 48 h storage with preservative” value is recorded as “more advantageous results”. Moreover, the antimicrobiotic activity result in the test with Staphylococcus aureus and in the test on Pseudomonas aeruginosa was “has antimicrobiotic activity” throughout.

`C[CH2][Hg][S]c1ccccc1C(=O)[O-].[Na+]` [Thiomersal, Natrium-2-(ethylmercurithio)benzoat]: the “VNTs after 48 h storage with preservative” value in the test with SARS-CoV-2 is “slight decrease”.
